Experimental data taken from ChEMBL document CHEMBL2440076, “New triarylpyrazoles as broad-spectrum anticancer agents: design, synthesis, and biological evaluation” (Eur J Med Chem, 2013).

Experiments:
[1] = tested on: U-251; assay: Growth inhibition of human U251 cells assessed as cell growth at 5X10'-5 M after 48 hrs by sulforhodamine B assay; format: functional; conditions: U-251, 48 h, read-out: Activity
[2] = tested on: NCI-H226; assay: Growth inhibition of human NCI-H226 cells assessed as cell growth at 5X10'-5 M after 48 hrs by sulforhodamine B assay; format: functional; conditions: NCI-H226, 48 h, read-out: Activity
[3] = tested on: HOP-92; assay: Growth inhibition of human HOP92 cells assessed as cell growth at 5X10'-5 M after 48 hrs by sulforhodamine B assay; format: functional; conditions: HOP-92, 48 h, read-out: Activity
[4] = tested on: A549; assay: Growth inhibition of human A549/ATCC cells assessed as cell growth at 5X10'-5 M after 48 hrs by sulforhodamine B assay; format: functional; conditions: A549, 48 h, read-out: Activity
[5] = tested on: MDA-MB-468; assay: Growth inhibition of human MDA-MB-468 cells assessed as cell growth at 5X10'-6 M after 48 hrs by sulforhodamine B assay; format: functional; conditions: MDA-MB-468, 48 h, read-out: Activity
[6] = tested on: MDA-MB-231; assay: Growth inhibition of human MDA-MB-231 cells assessed as cell growth at 5X10'-6 M after 48 hrs by sulforhodamine B assay; format: functional; conditions: MDA-MB-231, 48 h, read-out: Activity
[7] = tested on: ACHN; assay: Growth inhibition of human ACHN cells assessed as cell growth at 5X10'-6 M after 48 hrs by sulforhodamine B assay; format: functional; conditions: read-out: Activity
[8] = tested on: OVCAR-5; assay: Growth inhibition of human OVCAR5 cells assessed as cell growth at 5X10'-6 M after 48 hrs by sulforhodamine B assay; format: functional; conditions: OVCAR-5, 48 h, read-out: Activity
[9] = tested on: SK-MEL-28; assay: Growth inhibition of human SK-MEL-28 cells assessed as cell growth at 5X10'-6 M after 48 hrs by sulforhodamine B assay; format: functional; conditions: SK-MEL-28, 48 h, read-out: Activity
[10] = tested on: SK-MEL-2; assay: Growth inhibition of human SK-MEL-2 cells assessed as cell growth at 5X10'-6 M after 48 hrs by sulforhodamine B assay; format: functional; conditions: SK-MEL-2, 48 h, read-out: Activity
[11] = tested on: NCI-H522; assay: Growth inhibition of human NCI-H522 cells assessed as cell growth at 5X10'-9 M after 48 hrs by sulforhodamine B assay; format: functional; conditions: NCI-H522, 48 h, read-out: Activity
[12] = tested on: MDA-MB-468; assay: Growth inhibition of human MDA-MB-468 cells assessed as cell growth at 10 uM after 48 hrs by sulforhodamine B assay; format: functional; conditions: MDA-MB-468, 48 h, read-out: Activity
[13] = tested on: TK-10; assay: Growth inhibition of human TK10 cells assessed as cell growth at 10 uM after 48 hrs by sulforhodamine B assay; format: functional; conditions: TK-10, 48 h, read-out: Activity
[14] = tested on: CAKI-1; assay: Growth inhibition of human CAKI-1 cells assessed as cell growth at 10 uM after 48 hrs by sulforhodamine B assay; format: functional; conditions: CAKI-1, 48 h, read-out: Activity
[15] = tested on: SW-620; assay: Growth inhibition of human SW620 cells after 48 hrs by sulforhodamine B assay; format: functional; conditions: SW-620, 48 h; for CC50: read-out: LC50 (the source's name)
[16] = tested on: NCI-H522; assay: Growth inhibition of human NCI-H522 cells after 48 hrs by sulforhodamine B assay; format: functional; conditions: NCI-H522, 48 h
[17] = tested on: OVCAR-8; assay: Growth inhibition of human OVCAR8 cells assessed as cell growth at 10 uM after 48 hrs by sulforhodamine B assay; format: functional; conditions: OVCAR-8, 48 h, read-out: Activity
[18] = Growth inhibition of human HCC2998 cells assessed as cell growth at 10 uM after 48 hrs by sulforhodamine B assay; format: functional; conditions: HCC 2998, 48 h, read-out: Activity
[19] = tested on: NCI-H522; assay: Growth inhibition of human NCI-H522 cells assessed as cell growth at 10 uM after 48 hrs by sulforhodamine B assay; format: functional; conditions: NCI-H522, 48 h, read-out: Activity
[20] = tested on: NCI-H460; assay: Growth inhibition of human NCI-H460 cells assessed as cell growth at 10 uM after 48 hrs by sulforhodamine B assay; format: functional; conditions: NCI-H460, 48 h, read-out: Activity
[21] = tested on: COLO 205; assay: Growth inhibition of human COLO205 cells assessed as cell growth at 5X10'-6 M after 48 hrs by sulforhodamine B assay; format: functional; conditions: COLO 205, 48 h, read-out: Activity
[22] = tested on: UO-31; assay: Growth inhibition of human UO31 cells after 48 hrs by sulforhodamine B assay; format: functional; conditions: UO-31, 48 h; for CC50: read-out: LC50 (the source's name)
[23] = tested on: CAKI-1; assay: Growth inhibition of human CAKI-1 cells after 48 hrs by sulforhodamine B assay; format: functional; conditions: CAKI-1, 48 h; for CC50: read-out: LC50 (the source's name)
[24] = tested on: A498; assay: Growth inhibition of human A498 cells assessed as cell growth at 5X10'-7 M after 48 hrs by sulforhodamine B assay; format: functional; conditions: A498, 48 h, read-out: Activity
[25] = Growth inhibition of human NCI-ADR-RES cells assessed as cell growth at 5X10'-7 M after 48 hrs by sulforhodamine B assay; format: functional; conditions: read-out: Activity
[26] = tested on: UACC-62; assay: Growth inhibition of human UACC62 cells assessed as cell growth at 5X10'-7 M after 48 hrs by sulforhodamine B assay; format: functional; conditions: UACC-62, 48 h, read-out: Activity
[27] = tested on: 786-0; assay: Growth inhibition of human 786-0 cells after 48 hrs by sulforhodamine B assay; format: functional; conditions: 786-0, 48 h; for CC50: read-out: LC50 (the source's name)
[28] = tested on: OVCAR-3; assay: Growth inhibition of human OVCAR3 cells after 48 hrs by sulforhodamine B assay; format: functional, cell-based; conditions: OVCAR-3, 48 h; for CC50: read-out: LC50 (the source's name)
[29] = tested on: K562; assay: Growth inhibition of human K562 cells assessed as cell growth at 5X10'-7 M after 48 hrs by sulforhodamine B assay; format: functional; conditions: K562, 48 h, read-out: Activity
[30] = tested on: MDA-MB-231; assay: Growth inhibition of human MDA-MB-231 cells assessed as cell growth at 5X10'-8 M after 48 hrs by sulforhodamine B assay; format: functional; conditions: MDA-MB-231, 48 h, read-out: Activity
[31] = tested on: LOX IMVI; assay: Growth inhibition of human LOXIMVI cells assessed as cell growth at 5X10'-8 M after 48 hrs by sulforhodamine B assay; format: functional; conditions: read-out: Activity
[32] = tested on: UACC-62; assay: Growth inhibition of human UACC62 cells assessed as cell growth at 5X10'-5 M after 48 hrs by sulforhodamine B assay; format: functional; conditions: UACC-62, 48 h, read-out: Activity
[33] = tested on: MOLT-4; assay: Growth inhibition of human MOLT4 cells assessed as cell growth at 5X10'-8 M after 48 hrs by sulforhodamine B assay; format: functional; conditions: MOLT-4, 48 h, read-out: Activity
[34] = tested on: SN12C; assay: Growth inhibition of human SN12C cells assessed as cell growth at 5X10'-9 M after 48 hrs by sulforhodamine B assay; format: functional; conditions: read-out: Activity
[35] = tested on: IGROV-1; assay: Growth inhibition of human IGROV1 cells assessed as cell growth at 5X10'-9 M after 48 hrs by sulforhodamine B assay; format: functional; conditions: IGROV-1, 48 h, read-out: Activity

What does the source list for `COc1cc(-c2nn(-c3cccc(NC(=O)Nc4cc(C(F)(F)F)cc(C(F)(F)F)c4)c3)cc2-c2ccncc2)ccc1Cl`?
growth at 50 µM [1]: -78%; growth at 50 µM [2]: -4%; growth at 50 µM [3]: -72%; growth at 50 µM [4]: -65%; growth at 5 µM [5]: -42%; growth at 5 µM [6]: -84%; growth at 5 µM [7]: 2%; growth at 5 µM [8]: -36%; growth at 5 µM [9]: -78%; growth at 5 µM [10]: -73%; growth at 0.005 µM [11]: 102%; growth at 10 µM [12]: -25.4%; growth at 10 µM [13]: -26.7%; growth at 10 µM [14]: 18.5%; GI50 [15]: 715 nM; TGI [15]: 1860 nM; CC50 [15]: 4870 nM; GI50 [16]: 623 nM; LC50 (concentration killing 50% of cells) [16]: 6560 nM; TGI [16]: 1800 nM; growth at 10 µM [17]: -12.7%; growth at 10 µM [18]: -10.8%; growth at 10 µM [19]: -34.4%; growth at 10 µM [20]: -49.7%; growth at 5 µM [21]: -94%; GI50 [22]: 600 nM; TGI [22]: 1280 nM; CC50 [22]: 2730 nM; GI50 [23]: 993 nM; TGI [23]: 3140 nM; CC50 [23]: 49300 nM; growth at 0.5 µM [24]: 59%; growth at 0.5 µM [25]: 72%; growth at 0.5 µM [26]: 66%; GI50 [27]: 950 nM; TGI [27]: 2020 nM; CC50 [27]: 4310 nM; GI50 [28]: 411 nM; IC50 [28]: 410 nM; TGI [28]: 1230 nM; CC50 [28]: 3390 nM; growth at 0.5 µM [29]: 42%; growth at 0.05 µM [30]: 95%; growth at 0.05 µM [31]: 105%; growth at 50 µM [32]: -72%; growth at 0.05 µM [33]: 105%; growth at 0.005 µM [34]: 96%; growth at 0.005 µM [35]: 109%

What does the source list for `COc1cc(-c2nn(-c3cccc(NC(=O)c4cccc(C(F)(F)F)c4)c3)cc2-c2ccncc2)ccc1Cl`?
growth at 50 µM [1]: 3%; growth at 50 µM [2]: -7%; growth at 50 µM [3]: -22%; growth at 50 µM [4]: 9%; growth at 5 µM [5]: -4%; growth at 5 µM [6]: 9%; growth at 5 µM [7]: 27%; growth at 5 µM [8]: 46%; growth at 5 µM [9]: 34%; growth at 5 µM [10]: 8%; growth at 0.005 µM [11]: 95%; growth at 10 µM [12]: -19.4%; growth at 10 µM [13]: 8.08%; growth at 10 µM [14]: 44.7%; GI50 [15]: 2310 nM; TGI [15]: > 50000 nM; CC50 [15]: > 50000 nM; GI50 [16]: 1050 nM; LC50 (concentration killing 50% of cells) [16]: > 50000 nM; TGI [16]: 3850 nM; growth at 10 µM [17]: 11.8%; growth at 10 µM [18]: 0.91%; growth at 10 µM [19]: -42.3%; growth at 10 µM [20]: 4.83%; growth at 5 µM [21]: 1%; GI50 [22]: 968 nM; TGI [22]: > 50000 nM; CC50 [22]: > 50000 nM; GI50 [23]: 2010 nM; TGI [23]: > 50000 nM; CC50 [23]: > 50000 nM; growth at 0.5 µM [24]: 61%; growth at 0.5 µM [25]: 86%; growth at 0.5 µM [26]: 83%; GI50 [27]: 2450 nM; TGI [27]: > 50000 nM; CC50 [27]: > 50000 nM; GI50 [28]: 1200 nM; IC50 [28]: 1200 nM; TGI [28]: 2980 nM; CC50 [28]: > 50000 nM; growth at 0.5 µM [29]: 83%; growth at 0.05 µM [30]: 97%; growth at 0.05 µM [31]: 91%; growth at 50 µM [32]: 13%; growth at 0.05 µM [33]: 98%; growth at 0.005 µM [34]: 97%; growth at 0.005 µM [35]: 102%
